Legend:
[1] = target: human CB1 receptor (hCB1) (Homo sapiens, UniProt P21554); assay: cell-based; assay type: cell-based; settings: for +/− HCB1: agonist or inverse agonist at hCB1
Procedure, shortened: (§1)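 Readout: LANCE TR-FRET cAMP, back-calculated from a concurrent standard curve and scaled between forskolin-only and forskolin + 1 μM CP55,940 wells. EC50 and intrinsic activity came from four-parameter fits.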

rat CB2 receptor (rCB2) = target: T1, rat CB2 receptor (rCB2) (Rattus norvegicus, UniProt Q9QZN9); assay: cell-based; assay type: cell-based; settings: for +/− RCB2: agonist or inverse agonist at rCB2
T1 sequence (Q9QZN9 1-360): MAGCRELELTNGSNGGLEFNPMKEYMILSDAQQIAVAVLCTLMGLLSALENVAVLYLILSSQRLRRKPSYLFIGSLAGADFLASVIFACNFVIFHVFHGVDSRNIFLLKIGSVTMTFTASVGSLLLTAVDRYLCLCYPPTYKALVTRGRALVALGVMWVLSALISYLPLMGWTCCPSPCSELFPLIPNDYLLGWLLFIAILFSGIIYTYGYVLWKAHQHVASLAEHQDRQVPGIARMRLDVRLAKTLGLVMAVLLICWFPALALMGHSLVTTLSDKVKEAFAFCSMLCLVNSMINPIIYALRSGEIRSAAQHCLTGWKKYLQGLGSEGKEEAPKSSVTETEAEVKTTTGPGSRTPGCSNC
Procedure, shortened: as §1

human CB1 receptor (hCB1), sequence (P21554 whole entry): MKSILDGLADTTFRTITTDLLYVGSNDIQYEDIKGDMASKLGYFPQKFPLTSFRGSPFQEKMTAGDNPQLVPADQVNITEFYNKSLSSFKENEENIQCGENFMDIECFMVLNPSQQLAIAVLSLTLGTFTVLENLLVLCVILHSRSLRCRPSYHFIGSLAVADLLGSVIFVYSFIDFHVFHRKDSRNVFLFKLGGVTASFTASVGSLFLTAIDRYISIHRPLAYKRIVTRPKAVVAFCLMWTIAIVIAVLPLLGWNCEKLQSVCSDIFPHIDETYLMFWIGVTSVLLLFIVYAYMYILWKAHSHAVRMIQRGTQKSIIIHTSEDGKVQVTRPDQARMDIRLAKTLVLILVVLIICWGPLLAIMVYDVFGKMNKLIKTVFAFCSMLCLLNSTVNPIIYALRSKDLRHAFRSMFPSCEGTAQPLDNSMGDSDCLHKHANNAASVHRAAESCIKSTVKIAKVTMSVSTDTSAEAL

Compound: CNC(=O)[C@@H](NC(=O)c1nc(-c2cc(C(F)(F)F)ccc2F)n2c1CN(C)CC2)C(C)(C)C [Compound 245, (S)-N-(3,3-dimethyl-1-(methylamino)-1-oxobutan-2-yl)-3-(2-fluoro-5-(trifluoromethyl)phenyl)-7-methyl-5,6,7,8-tetrahydroimidazo[1,5-a]pyrazine-1-carboxamide]
- EC50 [1]: > 10 µM
- +/− RCB2 (rat CB2 receptor (rCB2)): −

Compound: CNC(=O)[C@@H](NC(=O)c1nc(-c2cc(Cl)ccc2F)n2c1CN(C)CC2)C(C)(C)C [Compound 246, (S)-3-(5-chloro-2-fluorophenyl)-N-(3,3-dimethyl-1-(methylamino)-1-oxobutan-2-yl)-7-methyl-5,6,7,8-tetrahydroimidazo[1,5-a]pyrazine-1-carboxamide]
- EC50 [1]: > 10 µM
- +/− RCB2 (rat CB2 receptor (rCB2)): −

Compound: CNC(=O)[C@@H](NC(=O)c1nc(-c2ccc(F)cc2)n2c1CN(C)CC2)C(C)(C)C [Compound 247, (S)-N-(3,3-dimethyl-1-(methylamino)-1-oxobutan-2-yl)-3-(4-fluorophenyl)-7-methyl-5,6,7,8-tetrahydroimidazo[1,5-a]pyrazine-1-carboxamide]
- EC50 [1]: > 10 µM
- +/− RCB2 (rat CB2 receptor (rCB2)): +

Compound: CNC(=O)[C@@H](NC(=O)c1nc(-c2ccc(F)cc2F)n2c1CN(C)CC2)C(C)(C)C [Compound 248, (S)-3-(2,4-difluorophenyl)-N-(3,3-dimethyl-1-(methylamino)-1-oxobutan-2-yl)-7-methyl-5,6,7,8-tetrahydroimidazo[1,5-a]pyrazine-1-carboxamide]
- EC50 [1]: > 10 µM
- EC50 (rat CB2 receptor (rCB2)): > 10 µM

Compound: CNC(=O)[C@@H](NC(=O)c1nc(-c2ccc(C)cc2F)n2c1CN(C)CC2)C(C)(C)C [Compound 249, (S)-N-(3,3-dimethyl-1-(methylamino)-1-oxobutan-2-yl)-3-(2-fluoro-4-methylphenyl)-7-methyl-5,6,7,8-tetrahydroimidazo[1,5-a]pyrazine-1-carboxamide]
- EC50 [1]: > 10 µM
- +/− RCB2 (rat CB2 receptor (rCB2)): −

Compound: CNC(=O)[C@@H](NC(=O)c1nc(-c2cc(F)ccc2F)n2c1CN(C)CC2)C(C)(C)C [Compound 250, (S)-3-(2,5-difluorophenyl)-N-(3,3-dimethyl-1-(methylamino)-1-oxobutan-2-yl)-7-methyl-5,6,7,8-tetrahydroimidazo[1,5-a]pyrazine-1-carboxamide]
- EC50 [1]: > 10 µM
- EC50 (rat CB2 receptor (rCB2)): > 10 µM

Compound: CNC(=O)[C@@H](NC(=O)c1nc(-c2cc(C)ccc2F)n2c1CN(C)CC2)C(C)(C)C [Compound 251, (S)-N-(3,3-dimethyl-1-(methylamino)-1-oxobutan-2-yl)-3-(2-fluoro-5-methylphenyl)-7-methyl-5,6,7,8-tetrahydroimidazo[1,5-a]pyrazine-1-carboxamide]
- EC50 [1]: > 10 µM
- +/− RCB2 (rat CB2 receptor (rCB2)): −

Compound: CNC(=O)[C@@H](NC(=O)c1nc(-c2cccnc2)n2c1CN(C)CC2)C(C)(C)C [Compound 252, (S)-N-(3,3-dimethyl-1-(methylamino)-1-oxobutan-2-yl)-7-methyl-3-(pyridin-3-yl)-5,6,7,8-tetrahydroimidazo[1,5-a]pyrazine-1-carboxamide]
- EC50 [1]: > 10 µM
- +/− RCB2 (rat CB2 receptor (rCB2)): +

Compound: CNC(=O)[C@@H](NC(=O)c1nc(-c2ccccc2Cl)n2c1CN(C)CC2)C(C)(C)C [Compound 253, (S)-3-(2-chlorophenyl)-N-(3,3-dimethyl-1-(methylamino)-1-oxobutan-2-yl)-7-methyl-5,6,7,8-tetrahydroimidazo[1,5-a]pyrazine-1-carboxamide]
- EC50 [1]: > 10 µM
- +/− RCB2 (rat CB2 receptor (rCB2)): +

Compound: CNC(=O)[C@@H](NC(=O)c1nc(-c2ccc(C#N)cc2)n2c1CN(C)CC2)C(C)(C)C [Compound 254, (S)-3-(4-cyanophenyl)-N-(3,3-dimethyl-1-(methylamino)-1-oxobutan-2-yl)-7-methyl-5,6,7,8-tetrahydroimidazo[1,5-a]pyrazine-1-carboxamide]
- EC50 [1]: > 10 µM
- +/− RCB2 (rat CB2 receptor (rCB2)): −

Compound: CNC(=O)[C@@H](NC(=O)c1nc(-c2ccccc2C(F)(F)F)n2c1CN(C)CC2)C(C)(C)C [Compound 255, (S)-N-(3,3-dimethyl-1-(methylamino)-1-oxobutan-2-yl)-7-methyl-3-(2-(trifluoromethyl)phenyl)-5,6,7,8-tetrahydroimidazo[1,5-a]pyrazine-1-carboxamide]
- EC50 [1]: > 10 µM
- +/− RCB2 (rat CB2 receptor (rCB2)): +

Compound: CNC(=O)[C@@H](NC(=O)c1nc(C2=CCCCC2)n2c1CN(C)CC2)C(C)(C)C [Compound 256]
- EC50 [1]: > 10 µM
- +/− RCB2 (rat CB2 receptor (rCB2)): +

Compound: CNC(=O)[C@@H](NC(=O)c1nc(C=C(C)C)n2c1CN(C)CC2)C(C)(C)C [Compound 257, (S)-N-(3,3-dimethyl-1-(methylamino)-1-oxobutan-2-yl)-7-methyl-3-(2-methylprop-1-enyl)-5,6,7,8-tetrahydroimidazo[1,5-a]pyrazine-1-carboxamide]
- EC50 [1]: > 10 µM
- +/− RCB2 (rat CB2 receptor (rCB2)): +

Compound: CNC(=O)[C@@H](NC(=O)c1nc(-c2ccccc2F)n2c1CN(C)CC2)C(C)(C)C [Compound 258, (S)-N-(3,3-dimethyl-1-(methylamino)-1-oxobutan-2-yl)-3-(2-fluorophenyl)-7-methyl-5,6,7,8-tetrahydroimidazo[1,5-a]pyrazine-1-carboxamide]
- EC50 [1]: > 10 µM
- EC50 (rat CB2 receptor (rCB2)): > 10 µM

Compound: CNC(=O)[C@@H](NC(=O)c1nc(-c2ccccc2C#N)n2c1CN(C)CC2)C(C)(C)C [Compound 259, (S)-3-(2-cyanophenyl)-N-(3,3-dimethyl-1-(methylamino)-1-oxobutan-2-yl)-7-methyl-5,6,7,8-tetrahydroimidazo[1,5-a]pyrazine-1-carboxamide]
- EC50 [1]: > 10 µM
- EC50 (rat CB2 receptor (rCB2)): > 10 µM

Compound: CNC(=O)[C@@H](NC(=O)c1nc(-c2cccc(C#N)c2)n2c1CN(C)CC2)C(C)(C)C [Compound 260, (S)-3-(3-cyanophenyl)-N-(3,3-dimethyl-1-(methylamino)-1-oxobutan-2-yl)-7-methyl-5,6,7,8-tetrahydroimidazo[1,5-a]pyrazine-1-carboxamide]
- EC50 [1]: > 10 µM
- +/− RCB2 (rat CB2 receptor (rCB2)): −

Compound: CNC(=O)[C@@H](NC(=O)c1nc(-c2cccc(F)c2F)n2c1CN(C)CC2)C(C)(C)C [Compound 261, (S)-3-(2,3-difluorophenyl)-N-(3,3-dimethyl-1-(methylamino)-1-oxobutan-2-yl)-7-methyl-5,6,7,8-tetrahydroimidazo[1,5-a]pyrazine-1-carboxamide]
- EC50 [1]: > 10 µM
- +/− RCB2 (rat CB2 receptor (rCB2)): +

Compound: CNC(=O)[C@@H](NC(=O)c1nc(-c2cc(F)cc(F)c2)n2c1CN(C)CC2)C(C)(C)C [Compound 262, (S)-3-(3,5-difluorophenyl)-N-(3,3-dimethyl-1-(methylamino)-1-oxobutan-2-yl)-7-methyl-5,6,7,8-tetrahydroimidazo[1,5-a]pyrazine-1-carboxamide]
- EC50 [1]: > 10 µM
- +/− RCB2 (rat CB2 receptor (rCB2)): +

Compound: CNC(=O)[C@@H](NC(=O)c1nc(/C=C/C(C)(C)C)n2c1CN(C)CC2)C(C)(C)C [Compound 263, (S,E)-N-(3,3-dimethyl-1-(methylamino)-1-oxobutan-2-yl)-3-(3,3-dimethylbut-1-enyl)-7-methyl-5,6,7,8-tetrahydroimidazo[1,5-a]pyrazine-1-carboxamide]
- EC50 [1]: > 10 µM
- +/− RCB2 (rat CB2 receptor (rCB2)): +

Compound: CNC(=O)[C@@H](NC(=O)c1nc(/C=C/COC)n2c1CN(C)CC2)C(C)(C)C [Compound 264, (S,E)-N-(3,3-dimethyl-1-(methylamino)-1-oxobutan-2-yl)-3-(3-methoxyprop-1-enyl)-7-methyl-5,6,7,8-tetrahydroimidazo[1,5-a]pyrazine-1-carboxamide]
- EC50 [1]: > 10 µM
- +/− RCB2 (rat CB2 receptor (rCB2)): +

Compound: CNC(=O)[C@@H](NC(=O)c1nc(-c2ccc(-c3ccccc3)cc2)n2c1CN(C)CC2)C(C)(C)C [Compound 265, (S)-3-(biphenyl-4-yl)-N-(3,3-dimethyl-1-(methylamino)-1-oxobutan-2-yl)-7-methyl-5,6,7,8-tetrahydroimidazo[1,5-a]pyrazine-1-carboxamide]
- EC50 [1]: > 10 µM
- +/− RCB2 (rat CB2 receptor (rCB2)): −

Compound: C=Cc1nc(C(=O)N[C@H](C(=O)NC)C(C)(C)C)c2n1CCN(C)C2 [Compound 266, (S)-N-(3,3-dimethyl-1-(methylamino)-1-oxobutan-2-yl)-7-methyl-3-vinyl-5,6,7,8-tetrahydroimidazo[1,5-a]pyrazine-1-carboxamide]
- EC50 [1]: > 10 µM
- +/− RCB2 (rat CB2 receptor (rCB2)): −

Compound: C=C(C)c1nc(C(=O)N[C@H](C(=O)NC)C(C)(C)C)c2n1CCN(C)C2 [Compound 267, (S)-N-(3,3-dimethyl-1-(methylamino)-1-oxobutan-2-yl)-7-methyl-3-(prop-1-en-2-yl)-5,6,7,8-tetrahydroimidazo[1,5-a]pyrazine-1-carboxamide]
- EC50 [1]: > 10 µM
- +/− RCB2 (rat CB2 receptor (rCB2)): +

Compound: CCC/C=C/c1nc(C(=O)N[C@H](C(=O)NC)C(C)(C)C)c2n1CCN(C)C2 [Compound 268, (S,E)-N-(3,3-dimethyl-1-(methylamino)-1-oxobutan-2-yl)-7-methyl-3-(pent-1-enyl)-5,6,7,8-tetrahydroimidazo[1,5-a]pyrazine-1-carboxamide]
- +/− HCB1 [1]: +
- EC50 (rat CB2 receptor (rCB2)): > 10 µM

Compound: CNC(=O)[C@@H](NC(=O)c1nc(C2CC2)n2c1CN(C)CC2)C(C)(C)C [Compound 269, (S)-3-cyclopropyl-N-(3,3-dimethyl-1-(methylamino)-1-oxobutan-2-yl)-7-methyl-5,6,7,8-tetrahydroimidazo[1,5-a]pyrazine-1-carboxamide]
- +/− HCB1 [1]: +
- +/− RCB2 (rat CB2 receptor (rCB2)): +
